Results from patent US20160243011A1, “Formulations Comprising Idebenone, N-Acetyl-S-Farnesyl-L-Cysteine and Ergothioneine and Uses Thereof” (ELIZABETH ARDEN, INC., priority 2012, published 2016).

Experiments:
[1] = system: IL-6; test: UVB induced IL-6 release in NHEKs (ELISA); format: cell-based, Human; conditions: for IL-6 (% inh) / EPF Score: 1 μM; for IL-6 (% inh) / inhibition at 1 µM: 6 hours pre-treatment, NHEK, UVB 25 mJ/cm2, 24 hours; for EPF Score: Example 8 (8A), IL-6; for inhibition at 1 µM: Homo sapiens, light or radiation study, read-out: IL-6 (% inh)
Method: (§1) In order to evaluate the impact of UV-induced inflammation in human skin, primary cell monolayer cultures were exposed to different types of UV radiation, i.e. UVB and UVA. Primary Human Dermal Fibroblasts (HDFs) were irradiated with UVA (350 nm) and Normal Human Epidermal Keratinocytes cells (NHEKs) with UVB (305 nm). HDFs were cultured in Dulbecco's Modified Eagle Medium (DMEM) basal medium (Life Technologies, Grand Island, N.Y.), supplemented with 10% v/v fetal bovine serum (FBS), (referred to as supplemented media) at 37° C. with 5% CO2 NHEKs were cultured in Epilife® basal medium (Life Technologies, Grand Island, N.Y.), supplemented with 60 μM calcium, 0.2% v/v bovine pituitary extract (BPE), 5 μg/ml bovine insulin, 0.18 μg/ml hydrocortisone, 5 μg/ml bovine transferrin, 5 μg/ml, 0.2 ng/ml human epidermal growth factor (referred to as supplemented media) at 37° C. with 5% CO2.
(§2) In order to avoid possible immunomodulating effects of these agents during compound treatments, cells were kept in DMEM or Epilife® basal medium without growth supplements (referred to as depleted media). Cells were plated at a concentration of 3.8×10^4 cells/well in supplemented media in 24-well plates. After cells were allowed to adhere (24 hours), media was changed to depleted media.
(§3) For “blend” testing, a formulation of idebenone, Arazine™ and ergothioneine (1:1:1 molar ratio) was prepared before mixing to medium. Six hours after pre-treatments, to induce a pro-inflammatory response, pre-treatment media was removed and replaced with phosphate-buffered saline (PBS).
(§4) Immediately after UV irradiation, cells were placed in fresh depleted medium for 24 hours. Cell cultures were examined for viability by the reduction of 3-(4,5-dimethylthiazol-2-yl)-5-(3-carboxymethoxyphenyl)-2-(4-sulfophenyl)-2H-tetrazolium (MTS assay; Promega, Madison, Wis.) to determine the percentage of viable cells after compound and UV irradiation. Media supernatants were harvested from non-irradiated and UV irradiated cells and assayed by enzyme-linked immunosorbent assays (ELISA) for the stimulated release of pro-inflammatory mediators. NHEKs were assayed for concentrations of Interleukin-6 (IL-6) and Tumor Necrosis Factor-alpha (TNF-alpha) using appropriate protein standards (BD Biosciences; San Jose, Calif.). HDFs were assayed for concentrations of IL-6 (BD Biosciences) or pro-Matrix Metalloproteinase-1 (pro-MMP-1) using appropriate protein standards (R&D Systems; Minneapolis, Minn.).
(§5) Control groups contained non-irradiated cells. Twenty four hours later, cell medium were assayed for the presence of pro-inflammatory mediators by ELISA.
(§6) To test these anti-oxidants for anti-inflammatory properties, primary Human Epidermal Keratinocytes (NHEKs) were cultured in the presence of each ingredient for 6 hours. Ingredients were then removed and cells were irradiated with 25 mJ/cm2 UVB. Media supernatants were collected after 24 hours and analyzed by ELISA for IL-6 and TNF-α. All ingredients were tested at 1 μM.

[2] = system: IL-6; test: UVA induced IL-6 production in HDFs (ELISA); format: cell-based, Human; conditions: for IL-6 (% inh) / EPF Score: 1 μM; for IL-6 (% inh) / inhibition at 1 µM: 6 hours pre-treatment, HDF, UVA 12.5 J/cm^2, 24 hours; for EPF Score: Example 9 (9A), IL-6; for inhibition at 1 µM: Homo sapiens, light or radiation study, read-out: IL-6 (% inh)
Method: as §1, §2, §3, §4
(§7) To test these anti-oxidants for anti-inflammatory and anti-aging properties, primary Human Dermal Fibroblasts (HDFs) were cultured in the presence of each ingredient for 6 hours. […] Media supernatants were collected after 24 hours and analyzed by ELISA for IL-6 and pro-MMP-1. All ingredients were tested at 1 μM.

[3] = Total Environmental Protection Factor (EPF) score; conditions: 180 point scoring system (20 points for each endpoint measured)
[4] = system: pro-MMP-1; test: UVA induced pro-MMP-1 production in HDFs (ELISA); format: cell-based, Human; conditions: for MMP-1 (% inh) / EPF Score: 1 μM; for MMP-1 (% inh) / inhibition at 1 µM: 6 hours pre-treatment, HDF, UVA 12.5 J/cm^2, 24 hours; for EPF Score: Example 9 (9B), MMP-1; for inhibition at 1 µM: Homo sapiens, light or radiation study, read-out: MMP-1 (% inh)
Method: as §1, §2, §3, §4, §7

[5] = system: Primary Human Epidermal Keratinocytes (NHEKs); test: UVB induced DNA damage (thymine dimer formation); format: cell-based; conditions: 1 μM, 6 hours pre-treatment; UVB 200 mJ/cm^2
Method: Primary Human Epidermal Keratinocytes (NHEKs) were cultured in the presence of each test ingredient (1 μM) for 6 hours and later removed prior to UVB irradiation (200 mJ/cm^2). Cells were fixed after 1 hour and stained with anti-thymine dimer antibody. Positive rounded stained cells were counted using a fluorescence microscope.

[6] = Radical scavenging capacity (oxidation of ABTS by metmyoglobin); format: biochemical; conditions: for EPF Score: Example 3, scores: 10^−3 M=5, 10^−4 M=15, 10^−5 M=20; for Effective and oxidant conc: lowest effective concentration, OD 750 nm
From the text: This assay analyzed the overall antioxidant capacity of test ingredients for the ability to inhibit the oxidation of 2,2′-azino-bis(3-ethylbenzothiazoline-6-sulphonic acid) (ABTS). to ABTS.^+ by metmyoglobin. The testing involved the suppression of optical density (OD) at 750 nm to a degree that is proportional to an effective oxidation inhibition. The EPF scoring system was based on the lowest effective concentration as previously described by MacDaniel et al., 2005 and scores were assigned as follows: 10^−3 M=5; 10^−4 M=15; 10^−5 M=20.

[7] = system: Human LDL; test: LDL pro-oxidative system measuring primary oxidation by-products; format: biochemical; conditions: 100 μM; for Lipid hydrogen-peroxide % protection: CuSO4 oxidative system, 24 hours; for EPF Score: Example 4
Method: Human LDL was oxidized with or without 0.1 mM materials under a CuSO4 oxidative system in Ham's F-10 medium.

[8] = system: Rat liver microsomes; test: Microsome pro-oxidative system measuring secondary oxidation by-products (TBARS); format: biochemical; conditions: 100 μM; for Lipid MDA % protection: NADPH/ADP/Fe^3+ oxidative system, 24 hours; for EPF Score: Example 5
Method: Rat liver microsomes were oxidized with or without test ingredients at 0.1 mM using a NADPH/ADP/Fe^3+ oxidative system. Secondary oxidation products were quantified after 24 hours incubation by measuring MDA equivalents directly utilizing the production of Thiobarbituric acid-reactive substances (TBARS). Results are expressed as the change in optical density (OD) at 532 nm to a degree that is proportional to an effective oxidation inhibition based on 1,1,3,3-tetraethoxypropane as MDA-TBA production standard.

[9] = system: EpiDerm™ inserts; test: UVB induced sun burn cell (SBC) formation using EpiDerm; format: cell-based; conditions: for SBC % inhibition / inhibition at 1000 µM: 1 mM topical, 6 hours, UVB 200 mJ/cm^2, fixed after 24 hours; for EPF Score: Example 7, 1 mM; for inhibition at 1000 µM: light or radiation study
Method: EpiDerm™ inserts (MatTek®) were topically treated in the presence of each test ingredient for 6 hours, after which they were removed, inserts were irradiated with 200 mJ/cm^2 UVB, and they fixed for H&E staining after 24 hours. The number of sun burn cells (SBCs) (white arrows) was counted. All compounds were tested at 1 mM.

[10] = system: TNFα; test: UVB induced TNFα release in NHEKs (ELISA); format: cell-based, Human; conditions: for TNFα (% inh) / EPF Score: 1 μM; for TNFα (% inh) / inhibition at 1 µM: 6 hours pre-treatment, NHEK, UVB 25 mJ/cm2, 24 hours; for EPF Score: Example 8 (8B), TNFα; for inhibition at 1 µM: Homo sapiens, light or radiation study, read-out: TNFα (% inh)
Method: as §1, §2, §3, §4, §5, §6

[11] = system: IL-6; test: UVB induced IL-6 release in NHEKs (ELISA); format: cell-based; conditions: Homo sapiens, light or radiation study; Compound (0.1 μM); NHEK, UVB 25 mJ/cm^2, medium assayed 24 h later; read-out: IL-6 (% inhibited)
[12] = system: TNFα; test: UVB induced TNFα release in NHEKs (ELISA); format: cell-based; conditions: Homo sapiens, light or radiation study; Compound (0.1 μM); NHEK, UVB 25 mJ/cm^2, medium assayed 24 h later; read-out: TNFα (% inhibited)
[13] = system: Primary Human Epidermal Keratinocytes (NHEKs); test: UVB induced DNA damage (thymine dimer formation); format: cell-based; conditions: Example 6; 1 μM

Molecule: O=C(O)CCCC[C@@H]1CCSS1 (racemic) [Lipoic acid]
- IL-6 (% inh) [1]: 46%
- EPF Score [1]: 14
- IL-6 (% inh) [2]: 62%
- EPF Score [2]: 13
- Total EPF score (TTL) [3]: 94
- MMP-1 (% inh) [4]: 80%
- EPF Score [4]: 16
- DNA damage % protection [5]: 13%
- EPF Score [6]: 5
- Effective and oxidant conc [6]: >3 mM
- Lipid hydrogen-peroxide % protection [7]: 5%
- EPF Score [7]: 2
- Lipid MDA % protection [8]: 25%
- EPF Score [8]: 7
- SBC % inhibition [9]: 27%
- EPF Score [9]: 8
- TNFα (% inh) [10]: 52%
- EPF Score [10]: 14

Molecule: CC(=O)N[C@@H](CSC/C=C(\C)CC/C=C(\C)CCC=C(C)C)C(=O)O [Arazine ™, N-acetyl-S-farnesyl-L-cysteine]
- inhibition at 0.1 µM [11]: 28%
- inhibition at 0.1 µM [12]: 33%

Molecule: C[N+](C)(C)C(Cc1c[nH]c(=S)[nH]1)C(=O)O (stereo not drawn) [Ergothioneine, 3-(2-sulfanylidene-1,3-dihydroimidazol-4-yl)-2-(trimethylazaniumyl)propanoate]
- inhibition at 0.1 µM [11]: 12%
- inhibition at 0.1 µM [12]: 35%

Molecule: COc1cc(/C=C/C(=O)O)ccc1O [Ferulic acid]
- EPF Score [1]: 16
- inhibition at 1 µM [1]: 54%
- EPF Score [2]: 13
- inhibition at 1 µM [2]: 62%
- Total EPF score (TTL) [3]: 130
- EPF Score [4]: 7
- inhibition at 1 µM [4]: 37%
- DNA damage % protection [5]: 14%
- EPF Score [6]: 20
- Effective and oxidant conc [6]: 0.03 mM
- Lipid hydrogen-peroxide % protection [7]: 94%
- EPF Score [7]: 20
- EPF Score [13]: 5
- Lipid MDA % protection [8]: 63%
- EPF Score [8]: 17
- EPF Score [9]: 18
- inhibition at 1000 µM [9]: 64%
- EPF Score [10]: 14
- inhibition at 1 µM [10]: 55%

Molecule: COC1=C(OC)C(=O)C(CCCCCCCCCCO)=C(C)C1=O [Idebenone]
- inhibition at 0.1 µM [11]: 15%
- inhibition at 0.1 µM [12]: 47%

Molecule: c1coc(CNc2ncnc3[nH]cnc23)c1 [Kinetin]
- EPF Score [1]: 16
- EPF Score [2]: 15
- EPF Score [4]: 2
- DNA damage % protection [5]: 14%
- Lipid hydrogen-peroxide % protection [7]: 1%
- EPF Score [7]: 1
- Lipid MDA % protection [8]: 0%
- EPF Score [8]: 0
- EPF Score [9]: 18
- inhibition at 1000 µM [9]: 62%
- EPF Score [10]: 10

Molecule: COC1=C(OC)C(=O)C(C/C=C(\C)CC/C=C(\C)CC/C=C(\C)CC/C=C(\C)CC/C=C(\C)CC/C=C(\C)CC/C=C(\C)CC/C=C(\C)CC/C=C(\C)CCC=C(C)C)=C(C)C1=O [Ubiquinone]
- EPF Score [1]: 10
- inhibition at 1 µM [1]: 34%
- EPF Score [2]: 17
- inhibition at 1 µM [2]: 79%
- Total EPF score (TTL) [3]: 87
- EPF Score [4]: 5
- inhibition at 1 µM [4]: 26%
- DNA damage % protection [5]: 9%
- EPF Score [6]: 5
- Effective and oxidant conc [6]: >3 mM
- Lipid hydrogen-peroxide % protection [7]: 14%
- EPF Score [7]: 5
- EPF Score [13]: 3
- Lipid MDA % protection [8]: 62%
- EPF Score [8]: 17
- EPF Score [9]: 13
- inhibition at 1000 µM [9]: 46%
- EPF Score [10]: 12
- inhibition at 1 µM [10]: 48%

Molecule: O=C1O[C@H]([C@@H](O)CO)C(O)=C1O [Vitamin C, ascorbic acid]
- EPF Score [1]: 4
- inhibition at 1 µM [1]: 13%
- EPF Score [2]: 17
- inhibition at 1 µM [2]: 81%
- Total EPF score (TTL) [3]: 73
- EPF Score [4]: 3
- inhibition at 1 µM [4]: 13%
- DNA damage % protection [5]: 16%
- EPF Score [6]: 20
- Effective and oxidant conc [6]: 0.03 mM
- Lipid hydrogen-peroxide % protection [7]: 0%
- EPF Score [7]: 1
- EPF Score [13]: 6
- Lipid MDA % protection [8]: 7%
- EPF Score [8]: 2
- EPF Score [9]: 9
- inhibition at 1000 µM [9]: 31%
- EPF Score [10]: 9
- inhibition at 1 µM [10]: 36%

Molecule: tocopherol [Vitamin E]
- IL-6 (% inh) [1]: 12%
- EPF Score [1]: 4
- IL-6 (% inh) [2]: 82%
- EPF Score [2]: 18
- Total EPF score (TTL) [3]: 95
- MMP-1 (% inh) [4]: 80%
- EPF Score [4]: 16
- DNA damage % protection [5]: 9%
- EPF Score [6]: 20
- Effective and oxidant conc [6]: 0.06 mM
- Lipid hydrogen-peroxide % protection [7]: 56%
- EPF Score [7]: 12
- EPF Score [13]: 3
- Lipid MDA % protection [8]: 45%
- EPF Score [8]: 12
- SBC % inhibition [9]: 21%
- EPF Score [9]: 6
- TNFα (% inh) [10]: 16%
- EPF Score [10]: 4
